# Source: patent publication US7410945B2, “Treatment of inflammatory bowel disease” (The University of Queensland, priority 2002, dated 2008)
# Entries after “also recorded” stand apart in the source; their conditions may differ.
# Columns and labels:
# [1] = test system: TNBS-induced colitis in rats; assay: TNBS-induced colitis in rats, acute 24-hour study; type: in vivo, rat; conditions: for colon macroscopic score: scale 0-13
# Experimental: Two time-frames were chosen for this study, an acute time frame (24 hours), and a chronic time frame (8-days). During the course of the study both body weight and food eaten were measured daily. In the 24-hour study, all drug treatments commenced 2 days prior to instillation of TNBS (prevention). PMX53-, prednisolone- and combination-treated rats were treated once daily, and C3a antagonist-treated rats were dosed twice daily. Rats treated with the anti-TNF-α monoclonal antibody, infliximab, were dosed intravenously on one occasion, 2 days prior to TNBS instillation.
# Statistical significance was assessed at P<0.05.
# [2] = test system: TNBS-induced colitis in rats; assay: TNBS-induced colitis in rats, chronic 8-day study
# Experimental: Male Wistar rats (250-300 g) were starved for 24 hours prior to being anaesthetised with ketamine (80 mg/kg i.p.) and xylazine (8 mg/kg i.p.). […] 120 mg/kg TNBS (50 mg/mL solution) along with 250 μL ethanol (100%) was then instilled to rats, which remained in the head-down position for 30 min to prevent leakage. Sham-operated rats (rats without colitis) received either saline alone or 250 μL ethanol and saline. Rats were then allowed to recover under observation.
# At the completion of each experiment, rats were anaesthetized with zolazapam (50 mg/kg, IP) and xylazine (12 mg/kg, IP), and blood was collected and serum stored at −20° C. for later determination of TNF-α concentrations. Colons were dissected, and the distal 8-cm rinsed with saline and scored for clinical macroscopic damage by an independent blinded observer, using a scale of 0-13 as set out below (Bobin-Dubigeon et al, 2001). A section of the affected colon was then collected, weighed, placed in an 80° C. oven for 24 h, then reweighed and the wet-to-dry weight ratio determined as a measure of colon oedema (Rachmilewitz et al., 1989). A separate section of affected colon was also collected and homogenized with 1 mL phosphate buffered saline, sonicated for 20 seconds and centrifuged (14 000×g, 10 min). The resulting supernatant was then either stored (−20° C.) for later TNF-α determination, or used immediately in an assay for the determination of myeloperoxidase (MPO) levels. Briefly, the assay involved the addition of 20 μL substrate (o-dianisidine, 2.85 mg/mL, Sigma, U.S.A.; and 0.85% hydrogen peroxidase) to a 1:40 dilution of supernatant in phosphate buffered saline. […] Results for colon MPO content were converted to absorbance units/g tissue. Additional sections of colon were removed and stored in 10% formalin for histopathological analysis. Fixed colonic samples were embedded in paraffin wax, and sections were stained using a haematoxylin and eosin stain, photographed and examined by an independent observer in a blinded fashion. Tissue and serum TNF-α levels were determined from stored samples using an enzyme-linked immunoabsorbent assay as previously described (Arumugam et al, 2002), using undiluted samples. Results for colonic TNF-α content were then converted to pg TNF-α /g tissue.
# In the 8-day study, drug-treated rats were treated both prior to colitis induction (2 days before; prevention) or following colitis induction (24 hours after; reversal).
# All experimental results are expressed as means±standard error of the mean (SEM). Data analysis was performed using GraphPad Prism 3.0 software (GraphPad Software, Inc. USA). Statistical comparisons were made between drug-treated groups and colitis control animals using a one-way analysis of variance followed by a Dunnett comparison post-test analysis. Statistical significance was assessed at P<0.05.
# C3a receptor = target: T1, C3a receptor (Homo sapiens, UniProt Q16581); conditions: Finch et al, 1999; cited from earlier work
# T1 sequence (Q16581 1-482): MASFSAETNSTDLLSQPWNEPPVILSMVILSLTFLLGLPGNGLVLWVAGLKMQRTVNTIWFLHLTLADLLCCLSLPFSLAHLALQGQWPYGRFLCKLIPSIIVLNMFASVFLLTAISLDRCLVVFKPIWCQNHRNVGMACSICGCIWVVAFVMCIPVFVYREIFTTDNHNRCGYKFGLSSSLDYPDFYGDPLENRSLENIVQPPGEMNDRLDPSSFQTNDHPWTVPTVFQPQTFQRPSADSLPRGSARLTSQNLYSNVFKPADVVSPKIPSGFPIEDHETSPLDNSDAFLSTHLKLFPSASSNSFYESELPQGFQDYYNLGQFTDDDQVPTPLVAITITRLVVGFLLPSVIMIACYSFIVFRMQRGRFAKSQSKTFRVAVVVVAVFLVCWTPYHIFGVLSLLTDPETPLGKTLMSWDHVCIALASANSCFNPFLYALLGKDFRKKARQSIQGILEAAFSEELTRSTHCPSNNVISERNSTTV
# membrane attack complex = conditions: Arumugam et al, 2003; cited from earlier work
# C5a receptor = conditions: cited from earlier work
# [3] = 8 days, post-treated 1 mg/kg/day SC, P>0.05
# [4] = 8 days, pre-treated 1 mg/kg/day SC, P<0.05
# [5] = 8 days, pre-treated rats, haematoxylin and eosin sections, vs drug-free rats
# [6] = post-treatment (from 24 h after colitis induction; reversal)
# [7] = pre-treatment (from 2 days before colitis induction)
# [8] = 8 days, prior to induction (10 mg/kg/day oral and 0.3 mg/kg/day SC) or 24 h after induction (1 and 10 mg/kg/day oral), P<0.05
# [9] = 8 days, prior to induction (10 mg/kg/day oral and 0.3 mg/kg/day SC) or 24 h after induction (1 and 10 mg/kg/day oral), P<0.05, listed as C5a antagonist
# [10] = 24 h, drug pre-treatment, vs drug-free colitis control
# [11] = 24 h, pre-treated 10 mg/kg/day oral or 0.3 mg/kg/day SC, P<0.05 vs colitis control
# [12] = 8 days, pre-treated 3 mg/kg IV, P<0.05
compound,measurement,setting,value
"NC(N)=NCCC[C@H](NC(=O)COCC(c1ccccc1)c1ccccc1)C(=O)O [SB 290157, Ph2CHCH2OCH2CO-Arg-OH, reference compound]",colon oedema (wet-to-dry weight ratio),"[1]; 24 h, C3a antagonist 30 mg/kg bid IP, pre-treatment",did not have a significant effect
same,overall disease pathology / parameters measured,[1]; 24 h study,effective in reducing some of the parameters measured; also recorded: able to modulate the pathology of IBD
same,macroscopic damage,"[1]; 24 h study, 30 mg/kg i.p. twice daily, vs colitis control",reduced the intensity of macroscopic damage
C[C@]12C=CC(=O)C=C1CC[C@@H]1[C@@H]2[C@@H](O)C[C@@]2(C)[C@H]1CC[C@]2(O)C(=O)CO [prednisolone],colon histopathology,"[2]; 8 days, post-treated 1 mg/kg/day SC, FIG. 8D","showed no improvement in disease pathology; also recorded: IC infiltration, E, extensive haemorrhage (H) and erosion of ML"
same,colonic MPO levels,[2]; [3],did not show any improvement in colonic MPO levels
same,colonic tissue TNF-α levels,[2]; [3],no significant reduction
same,food consumption,[2]; [3],no improvement in food consumption
same,colon oedema (wet-to-dry weight ratio),"[2]; 8 days, post-treatment 1 mg/kg/day SC",no effect on reducing oedema
same,mortality,"[2]; 8 days, post-treatment (24 h after induction)",no significant effect on reducing mortality
same,mortality rate,"[2]; 8 days, pre-treated 1 mg/kg/day SC",11%
same,colonic MPO levels,[2]; [4],significantly reduced colonic MPO levels
same,food consumption,[2]; [4],ate significantly more food than colitis control rats
same,colon oedema (wet-to-dry weight ratio),"[2]; 8 days, pre-treated 1 mg/kg/day SC, P>0.05",no significant reductions
same,change in body weight,"[2]; 8 days, pre-treated or post-treated 1 mg/kg/day SC, P>0.05","lost weight over the 8 days, with no significant difference compared to colitis control rats; also recorded: lost considerable body weight"
same,colon histopathology,[2]; [5],showed an improvement in pathology
same,colon macroscopic score,"[2]; Day 8, post-treated 1 mg/kg/day SC, P>0.05",did not have any improvement in macroscopic scores
same,colon macroscopic score,"[2]; Day 8, pre-treated 1 mg/kg/day SC, P<0.05",significantly improved macroscopic scores
same,overall disease parameters / markers,[2]; [6],reversal of pathology was not seen; also recorded: no appreciable therapeutic effects
same,overall disease parameters / markers,[2]; [7],only prednisolone pre-treated rats displayed any improvement in the disease parameters measured; also recorded: effective at reducing the majority of parameters measured
AcF-[OPdChaWR] [PMX53],colon histopathology,"[2]; 8 days, post-treated 10 mg/kg/day oral (PO), FIG. 8C",decrease in inflammatory cell accumulation and haemorrhage formation
same,colon histopathology,"[2]; 8 days, post-treated 10 mg/kg/day oral (PO), FIG. 8C, listed as C5a antagonist","showed an improvement in disease pathology; also recorded: IC infiltration and E, but with intact ML"
same,deaths,"[2]; 8 days, pre-treated 0.3 mg/kg SC",no deaths
same,colon histopathology,[2]; [5],showed an improvement in pathology
same,colon oedema (wet-to-dry weight ratio),[2]; [8],significantly lower
same,colonic MPO levels (neutrophil accumulation),[2]; [8],significantly lower
same,colon oedema (wet-to-dry weight ratio),[2]; [9],significant improvement in colon wet-to-dry weight ratios; also recorded: significant reductions in wet-to-dry weight ratios
same,colonic MPO levels (neutrophil accumulation),[2]; [9],reduced to similar levels to those of the sham-operated animals
same,mortality rate,"[2]; 8 days, prior to induction (10 mg/kg/day oral and 0.3 mg/kg/day SC) or 24 h after induction (1 or 10 mg/kg/day oral)",≤ 20%
same,food consumption,"[2]; 8 days, prior to induction (10 mg/kg/day oral and 0.3 mg/kg/day SC) or 24 h after induction (1 or 10 mg/kg/day oral), P<0.05",ate significantly more food
same,food consumption,"[2]; 8 days, prior to induction (10 mg/kg/day oral and 0.3 mg/kg/day SC) or 24 h after induction (1 or 10 mg/kg/day oral), P<0.05, listed as C5a antagonist",ate significantly more food than colitis control rats
same,change in body weight,"[2]; 8 days, prior to induction (10 mg/kg/day oral and 0.3 mg/kg/day SC) or 24 h after induction (1 or 10 mg/kg/day oral), P<0.05 vs colitis control",lost significantly less body weight
same,change in body weight,"[2]; 8 days, prior to induction (10 mg/kg/day oral and 0.3 mg/kg/day SC) or 24 h after induction (1 or 10 mg/kg/day oral), P<0.05 vs colitis control, listed as C5a antagonist","gained significant weight; also recorded: gained substantial weight over the 8 days, with significantly higher weights compared to colitis control rats"
same,colon macroscopic score,"[2]; Day 8, prior to induction (10 mg/kg/day oral and 0.3 mg/kg/day SC) or 24 h after induction (1 or 10 mg/kg/day oral), P<0.05",significantly lower colon macroscopic scores
same,colon macroscopic score,"[2]; Day 8, prior to induction (10 mg/kg/day oral and 0.3 mg/kg/day SC) or 24 h after induction (1 or 10 mg/kg/day oral), P<0.05, listed as C5a antagonist",significantly improved macroscopic scores
same,colonic tissue TNF-α levels,"[2]; after 8 days, vs drug-free colitis control, P<0.05",significantly lower
same,mortality,"[2]; over 8 days, vs drug-free colitis control (39%)",reduced mortality
same,overall disease parameters / markers,[2]; [6],significant reduction in all disease markers
same,overall disease parameters / markers,[2]; [7],markedly reduced all the disease markers measured
same,overall disease pathology,"[2]; rat model of chronic colitis, pre- and post-treatment",both prevents and reverses disease pathology
same,colon TNF-α levels,[1]; 24-hour study,significantly reduced
same,colon oedema,"[1]; 24 h, drug pre-treatment, vs colitis control",significantly reduced
same,colon MPO levels (neutrophil accumulation),[1]; [10],significantly reduced
same,colon MPO levels,[1]; [11],significant improvement
same,colon oedema (wet-to-dry weight ratio),[1]; [11],significant reduction in wet-to-dry weight ratios
same,colon macroscopic score,[1]; [10],significantly lower colon macroscopic scores
same,food consumption,"[1]; 24 h after TNBS, drug pre-treatment from 2 days before TNBS, vs drug-free colitis control",higher body weights and food intake
same,change in body weight,"[1]; 24 h after TNBS, drug pre-treatment, vs drug-free colitis control",higher body weights
same,overall disease pathology / parameters measured,[1]; 24 h study,significantly improves disease pathology
same,binding to the C3a receptor,C3a receptor,does not bind
same,effect on the formation of the membrane attack complex,membrane attack complex,no effect
same,specificity for the C5a receptor over other related human receptors,"C5a receptor; Finch et al, 1999",specific for the C5a receptor over other related human receptors
same,specificity for the C5a receptor across species,"C5a receptor; human, rat and dog, Woodruff et al, 2001","specific for the C5a receptor in human, rat and dog"
infliximab,colonic MPO levels,[2]; [12],significantly reduced colonic MPO levels
same,food consumption,[2]; [12],ate significantly more food than drug-free rats
same,colon oedema (wet-to-dry weight ratio),"[2]; 8 days, pre-treated 3 mg/kg IV, P>0.05",no significant reductions
same,colon histopathology,[2]; [5],showed an improvement in pathology
same,mortality,"[2]; 8 days, pre-treatment 3 mg/kg IV",20%
same,colon macroscopic score,"[2]; Day 8, pre-treated 3 mg/kg IV, P<0.05",significantly decreased scores
same,change in body weight,"[2]; Day 8, pre-treated 3 mg/kg IV, P>0.05","only a small weight gain at Day 8; however, these levels were not significantly higher than colitis control rats"
same,overall disease parameters / markers,[2]; [7],"did reduce the severity of lesions, it was not as effective as the C5a antagonist or prednisolone"
same,overall disease parameters / markers,"[2]; pre-treatment (from 2 days before colitis induction), listed as Infliximab","significantly reduced disease parameters, however to a lesser extent than those observed in PMX53-treated rats"
same,colon macroscopic score,[1]; [10],significant improvement seen in all treatment groups except for infliximab
